Laboratory results from patent US10717734B2, “Indole and azaindole haloallylamine derivative inhibitors of lysyl oxidases and uses thereof” (PHARMAXIS LTD., priority 2016, dated 2020).
Counter-ions that a name gives are not always drawn.

Key:
[1] = system: primary fibroblasts from confirmed cases of IPF (fibroblastic foci); test: Collagen cross-link formation in in vitro fibroblastic foci model of IPF; format: cell-based, human; details: TGF-β1 stimulated foci, six weeks culture with inhibitor
Text: Reduction of Collagen Cross-Link Formation in an in vitro Fibroblastic Foci Model of IPF
The lung tissue of patients with idiopathic pulmonary fibrosis (IPF) is characterised by dense collections of myofibroblasts and extracellular matrix (ECM) termed ‘fibroblastic foci’. Using a novel in vitro model of fibroblastic foci (Jones et al., AJRCCM 191; 2015:A4912) the formation of lysyl oxidase (LOX) mediated collagen cross-links and the effects of the nonselective LOX inhibitor β-aminopropionitrile (BAPN) as well lysyl oxidase like-2 (LOXL2)-selective inhibitors were investigated.
Cultures of primary fibroblasts were grown out from clinical diagnostic biopsies of fibrotic lung and stored in liquid nitrogen. […]
To quantify collagen cross-links (Robins Biochem Soc Trans 2007; 35(5): 849-852; Saito et al Anal. Biochem. 1997; 253: 26-32; Sims, Avery & Bailey Methods in Molecular Biology 2000; vol 139: 11-26), cultures were treated with potassium borohydride to stabilise the reducible immature cross-links, and hydrolysed in 6N HCl at 100° C. for 16 hr. Total collagen content was assessed by hydroxyproline assay. Immature cross-links were assessed by LC/MS/MS and mature pyridinoline cross-links by ELISA. Cross-link data is expressed as moles of cross-link per mole collagen. […]

Recombinant human MAO-B = Recombinant human MAO-B (Homo sapiens (Human), UniProt P27338); test: Human recombinant MAO-B inhibition; format: biochemical; details: benzylamine 100 μM
Recombinant human MAO-B, sequence (P27338 whole entry): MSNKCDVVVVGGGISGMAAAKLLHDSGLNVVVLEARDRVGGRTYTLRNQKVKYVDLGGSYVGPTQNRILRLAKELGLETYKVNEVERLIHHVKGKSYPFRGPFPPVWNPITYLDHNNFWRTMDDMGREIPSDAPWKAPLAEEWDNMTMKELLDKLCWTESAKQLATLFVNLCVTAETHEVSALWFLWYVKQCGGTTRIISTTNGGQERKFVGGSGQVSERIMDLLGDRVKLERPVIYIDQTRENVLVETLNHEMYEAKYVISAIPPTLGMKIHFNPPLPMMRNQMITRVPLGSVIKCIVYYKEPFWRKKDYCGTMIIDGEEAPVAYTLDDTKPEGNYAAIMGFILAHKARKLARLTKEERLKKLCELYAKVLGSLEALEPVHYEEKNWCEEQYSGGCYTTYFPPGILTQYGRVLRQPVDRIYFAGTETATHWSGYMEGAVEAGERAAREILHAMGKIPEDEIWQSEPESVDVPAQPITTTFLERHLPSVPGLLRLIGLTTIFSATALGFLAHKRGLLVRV
Outline: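 Recombinant human MAO-B (0.06 mg/mL) was the enzyme source, with benzylamine substrate at 100 μM. Otherwise run as for the human SSAO/VAP-1 assay.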

Human LOXL2 = Human LOXL2 (Homo sapiens (Human), UniProt Q9Y4K0); test: LOXL2 inhibition, peroxidase-coupled Amplex Red amine oxidase assay; format: biochemical; details: 30 min preincubation at 37° C., putrescine substrate
Human LOXL2, sequence (Q9Y4K0 26-774): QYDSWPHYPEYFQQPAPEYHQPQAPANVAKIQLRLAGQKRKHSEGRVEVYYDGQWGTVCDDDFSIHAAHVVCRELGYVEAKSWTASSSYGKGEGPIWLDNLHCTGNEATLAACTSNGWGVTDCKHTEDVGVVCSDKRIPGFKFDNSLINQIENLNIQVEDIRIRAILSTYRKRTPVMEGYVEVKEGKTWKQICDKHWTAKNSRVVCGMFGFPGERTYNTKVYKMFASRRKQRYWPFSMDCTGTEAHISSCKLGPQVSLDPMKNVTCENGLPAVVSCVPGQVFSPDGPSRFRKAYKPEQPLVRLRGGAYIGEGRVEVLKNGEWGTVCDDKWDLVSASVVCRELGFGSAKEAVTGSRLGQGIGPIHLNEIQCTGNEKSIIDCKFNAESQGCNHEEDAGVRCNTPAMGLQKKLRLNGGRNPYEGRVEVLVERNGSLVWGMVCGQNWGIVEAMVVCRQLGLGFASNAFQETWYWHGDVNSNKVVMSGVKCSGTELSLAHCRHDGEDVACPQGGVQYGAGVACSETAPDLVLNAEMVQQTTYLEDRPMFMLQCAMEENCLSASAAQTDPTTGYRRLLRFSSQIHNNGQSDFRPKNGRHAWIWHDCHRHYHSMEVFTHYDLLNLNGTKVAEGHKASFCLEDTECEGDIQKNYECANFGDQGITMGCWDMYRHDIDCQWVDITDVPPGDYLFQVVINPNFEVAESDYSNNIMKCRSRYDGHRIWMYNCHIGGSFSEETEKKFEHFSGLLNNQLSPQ
Outline: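 Enzyme preincubated 30 min at 37 °C with compound (11-point curve) in 1.2 M urea, 50 mM borate pH 8.2 plus 1 μM mofegiline and 0.5 mM pargyline; putrescine at twice KM (10 mM for LOXL2), Amplex Red and HRP added. Fluorescence (565/590 nm) read every 2.5 min for 30 min; IC50 from kinetic slopes.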

[2] = molecular target: Human recombinant SSAO/VAP-1 (Homo sapiens (Human), UniProt Q16853); test: Human recombinant SSAO/VAP-1 amine oxidase inhibition; format: biochemical; details: 30 min preincubation at 37° C., 600 μM benzylamine
Human recombinant SSAO/VAP-1, sequence (Q16853 34-763): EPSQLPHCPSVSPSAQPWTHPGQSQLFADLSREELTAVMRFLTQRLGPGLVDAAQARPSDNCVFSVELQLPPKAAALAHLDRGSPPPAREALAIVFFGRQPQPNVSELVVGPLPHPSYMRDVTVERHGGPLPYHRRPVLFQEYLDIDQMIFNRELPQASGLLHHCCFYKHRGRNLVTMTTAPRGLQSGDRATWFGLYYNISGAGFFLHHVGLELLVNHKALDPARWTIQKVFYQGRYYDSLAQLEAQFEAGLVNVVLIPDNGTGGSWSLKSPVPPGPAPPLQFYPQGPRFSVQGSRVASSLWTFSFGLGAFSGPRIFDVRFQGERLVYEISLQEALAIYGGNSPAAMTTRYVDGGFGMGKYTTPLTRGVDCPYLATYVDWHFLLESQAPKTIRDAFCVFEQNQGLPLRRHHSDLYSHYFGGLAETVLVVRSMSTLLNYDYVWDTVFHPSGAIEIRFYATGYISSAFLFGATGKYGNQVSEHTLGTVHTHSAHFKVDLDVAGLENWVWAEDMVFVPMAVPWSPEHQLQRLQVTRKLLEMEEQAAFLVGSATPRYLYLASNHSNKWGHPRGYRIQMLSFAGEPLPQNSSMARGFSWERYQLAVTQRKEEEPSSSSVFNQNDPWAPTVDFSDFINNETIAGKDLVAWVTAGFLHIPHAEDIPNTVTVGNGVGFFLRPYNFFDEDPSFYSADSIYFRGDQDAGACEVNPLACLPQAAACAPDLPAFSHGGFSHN
Outline: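 Purified SSAO/VAP-1 (residues 34-763, expressed in CHO Lec 8 cells; 0.25 μg/mL) preincubated 30 min at 37° C with compound in 0.1 M sodium phosphate pH 7.4. Reaction mix of 600 μM benzylamine, 120 μM Amplex Red and 1.5 U/mL HRP added; fluorescence (ex 565/em 590 nm) read every 2.5 min for 30 min; IC50 from kinetic slopes over 4-11 point curves.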

Bovine LOX = Bovine LOX (Bos taurus (Bovine), UniProt P33072); test: LOX inhibition, peroxidase-coupled Amplex Red amine oxidase assay; format: biochemical; details: 30 min preincubation at 37° C., putrescine substrate
Bovine LOX, sequence (P33072 170-418): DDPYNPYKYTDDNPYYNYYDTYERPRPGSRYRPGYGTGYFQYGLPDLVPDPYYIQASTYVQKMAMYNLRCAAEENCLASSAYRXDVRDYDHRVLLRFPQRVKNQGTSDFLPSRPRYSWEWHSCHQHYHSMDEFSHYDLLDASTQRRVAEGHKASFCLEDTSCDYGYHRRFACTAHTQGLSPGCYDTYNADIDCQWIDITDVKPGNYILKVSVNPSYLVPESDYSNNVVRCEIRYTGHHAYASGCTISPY
Outline: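 Bovine LOX in 1.2 M urea, 50 mM sodium borate pH 8.2 […]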

[3] = system: CCl4 induced liver fibrosis; test: CCl4 induced liver fibrosis model; format: in vivo, rat; details: 0.1-100 mg/Kg
Experimental: Inhibition of CCl4 Induced Liver Fibrosis
An analysis of the use of LOXL2 inhibitors to treat inflammatory/fibrotic diseases is performed through the use of a CCl4 induced liver fibrosis model. Liver injury is frequently followed by complete parenchymal regeneration due to regenerative potency of hepatocytes. Continuous liver injury due to the administration of CCl4 leads to extracellular matrix accumulation, accompanied by recurrent hepatocyte necrosis, inflammation, and regenerative processes, causing liver fibrosis and consequently liver cirrhosis (see Natsume, M, et al., Attenuated liver fibrosis and depressed serum albumin levels in carbon tetrachloride-treated IL-6-deficient mice. J. Leukoc. Biol., 1999, 66, 601-608 also See Yao, Q, Y, et al. Inhibition by curcumin of multiple sites of the transforming growth factor-beta1 signalling pathway ameliorates the progression of liver fibrosis induced by carbon tetrachloride in rats. BMC Complement Altern Med. 2012 Sep. 16; 12(1):156.)
Rats are administered orally with CCl4 at a concentration of 0.25 μL/g in olive oil, 3 times per week for 6 weeks. Compound 22 is given 0.1-100 mg/Kg throughout the period of the experimental procedure or only 3 weeks after CCl4 administration and then throughout the entire study. […]

| Compound | collagen cross-link formation [1] | IC50 (Recombinant human MAO-B) | IC50 (Human LOXL2) | IC50 [2] | IC50 (Bovine LOX) | inhibition of liver collagen by hydroxyproline analysis ([3]; CCl4 model, statistically significant) | reduction of liver fibrosis by sirius red staining with quantification ([3]; rats, oral CCl4 3 times per week for 6 weeks, versus vehicle-treated group) |
| --- | --- | --- | --- | --- | --- | --- | --- |
| N#CCCN [BAPN, β-aminopropionitrile] | reduced cross-link formation in a concentration dependent manner |  |  |  |  |  |  |
| Cc1ccc2c(n1)c(Cc1ccc(S(=O)(=O)N(C)C)cc1)c(C)n2C/C(F)=C/CN [Compound 9, (Z)-4-((1-(4-amino-2-fluorobut-2-en-1-yl)-2,5-dimethyl-1H-pyrrolo[3,2-b]pyridin-3-yl)methyl)-N,N-dimethylbenzenesulfonamide dihydrochloride] |  | > 3 µM | < 0.3 µM | > 3 µM | > 0.3 µM |  |  |
| CC(C)c1c(Cc2ccc(S(C)(=O)=O)nc2)c2ncccc2n1C/C(F)=C/CN [Compound 22, trihydrochloride] |  | > 3 µM | < 0.3 µM | > 3 µM | > 0.3 µM | > 30% | up to 50% |
| Cc1ncc2c(n1)c(Cc1ccc(S(C)(=O)=O)cc1)c(C)n2C/C(F)=C/CN [Compound 38, (Z)-4-(2,6-dimethyl-7-(4-(methylsulfonyl)benzyl)-5H-pyrrolo[3,2-d]pyrimidin-5-yl)-3-fluorobut-2-en-1-amine dihydrochloride] |  | > 3 µM | < 0.3 µM | > 3 µM | > 0.3 µM |  |  |
| Cc1ccc2c(n1)c(Cc1cccc(S(C)(=O)=O)c1)c(C)n2C/C(F)=C/CN [Compound 17, (Z)-4-(2,5-dimethyl-3-(3-(methylsulfonyl)benzyl)-1H-pyrrolo[3,2-b]pyridin-1-yl)-3-fluorobut-2-en-1-amine dihydrochloride] |  | > 3 µM | < 0.3 µM | > 3 µM | > 0.3 µM |  |  |
| CC(O)c1c(Cc2ccc(S(=O)(=O)N(C)C)cc2)c2ncccc2n1C/C(F)=C/CN (centres unmarked) [Compound 29, (Z)-4-((1-(4-amino-2-fluorobut-2-en-1-yl)-2-(1-hydroxyethyl)-1H-pyrrolo[3,2-b]pyridin-3-yl)methyl)-N,N-dimethylbenzenesulfonamide dihydrochloride] |  | > 3 µM | < 0.3 µM | > 3 µM | > 0.3 µM |  |  |
